According to patent US11198696B2, “Substituted xanthines as inhibitors of transient receptor potential cation channel subfamily c, member 5 activity” (Boehringer Ingelheim International GmbH, priority 2018, dated 2021):

These compounds were tested against T1, TRPC5 (Homo sapiens, UniProt Q9UL62) (assay: Assay A: Determination of TRPC5-Inhibition (whole-cell patch clamp)). Settings: compounds of the present invention, TRPC5-expressing HEK293 TREx cells, LaCl3-activated current.
T1 construct: expressed in transfected cells; host or cells: HEK293 TREx cells, inducible TRPC5 expression, induced 20-48 hours
T1 sequence (Q9UL62 1-973): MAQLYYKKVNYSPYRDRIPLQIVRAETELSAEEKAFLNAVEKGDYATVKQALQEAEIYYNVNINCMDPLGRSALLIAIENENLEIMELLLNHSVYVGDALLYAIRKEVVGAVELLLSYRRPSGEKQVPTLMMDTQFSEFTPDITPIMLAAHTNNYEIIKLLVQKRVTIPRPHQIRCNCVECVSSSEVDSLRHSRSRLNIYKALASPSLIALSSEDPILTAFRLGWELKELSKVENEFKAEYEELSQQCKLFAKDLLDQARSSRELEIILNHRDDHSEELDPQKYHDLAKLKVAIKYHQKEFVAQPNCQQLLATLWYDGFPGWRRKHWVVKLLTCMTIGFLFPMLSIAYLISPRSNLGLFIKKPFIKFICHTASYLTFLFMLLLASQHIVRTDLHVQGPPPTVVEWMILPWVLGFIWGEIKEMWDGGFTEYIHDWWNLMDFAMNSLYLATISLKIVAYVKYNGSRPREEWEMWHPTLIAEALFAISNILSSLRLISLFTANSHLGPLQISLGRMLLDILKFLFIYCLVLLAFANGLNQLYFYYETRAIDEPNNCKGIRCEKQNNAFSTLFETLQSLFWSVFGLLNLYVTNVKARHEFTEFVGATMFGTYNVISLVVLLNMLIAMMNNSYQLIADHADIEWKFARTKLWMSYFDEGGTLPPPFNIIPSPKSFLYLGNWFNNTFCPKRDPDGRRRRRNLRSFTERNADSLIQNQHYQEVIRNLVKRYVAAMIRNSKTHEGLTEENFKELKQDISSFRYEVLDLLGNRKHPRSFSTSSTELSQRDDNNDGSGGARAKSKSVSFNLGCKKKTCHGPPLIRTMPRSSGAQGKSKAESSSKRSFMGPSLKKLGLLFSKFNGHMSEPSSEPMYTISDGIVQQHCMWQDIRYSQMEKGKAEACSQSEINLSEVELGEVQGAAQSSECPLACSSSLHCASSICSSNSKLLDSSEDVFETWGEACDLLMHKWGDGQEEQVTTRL
Format: cell-based
Text: Assay A: Determination of TRPC5-Inhibition
Patch clamp experiments permit the detection of currents through the TRPC5 channel in a cell line. In normal whole-cell patch clamp recordings, a glass electrode is brought into contact with a single cell and a high-resistance (gigaohm) seal is established with the cell membrane. The membrane is then ruptured to achieve the whole-cell configuration, permitting control of the voltage of the cell membrane and measurement of currents flowing across the membrane using the amplifier attached to the electrode and resulting in the replacement of cytoplasm with the pipette solution. A perfusion system permits control of the extracellular solution, including the addition of blockers and activators of the current. The current can be activated by including 1.4 μM free Ca2+ in the pipette (intracellular) solution, and 80 μM LaCl3 in the extracellular solution.
TRPC5 cells were induced 20-48 hours, removed from growth plates, and replated at low density (to attain good single-cell physical separation) on glass coverslips for measurement. In some cases, cells were grown in low density overnight on glass coverslips. Patch clamp recordings were made in the whole-cell mode with a holding potential of −40 mV. Every 5 seconds, a voltage ramp was applied from −120 to +100 mV, 400 ms in duration. Currents elicited were quantified at −80 mV and +80 mV. The internal solution consisted of 140 mM cesium aspartate, 10 mM HEDTA, 2 mM CaCl2, 2.27 mM MgCl2 and 10 mM HEPES, pH 7.2, with 1,400 nM calculated free Ca2+. The external solution consisted of 150 mM NaCl, 4.5 mM 15 KCl, 1 mM MgCl2, 2 mM CaCl2, 10 mM HEPES, 10 mM glucose, 1 mM EGTA, pH 7.4. Upon addition of LaCl3, TRPC5 current was induced only in TRPC5-expressing cells and not in parental HEK293 TREx cells. Removal of the LaCh stimulus causes most of the current to go away. Potential blockers were tested for ability to block both inward and outward currents in the continued presence of LaCl3.
IC50 of a compound of the invention was estimated by testing the compound 500 nM. […] Compounds blocking 50% or more at 500 nM are retested at multiple concentrations, and the % block is fitted by standard equations to determine IC50 accurately, using a 5/6 point concentration-response experiment.

IC50	SMILES
< 0.032 nM	Cc1nc(OC2CCC2C)ccc1-c1nc2c(c(=O)n(CCCO)c(=O)n2C(C)C)n1Cc1ccc(F)cc1 (centres unmarked) [Example 1]
0.095 nM	Cc1nc(OC2CCCCC2)ccc1-c1nc2c(c(=O)n(CCCO)c(=O)n2C(C)C)n1Cc1ccccc1 [Example 2]
< 0.1 nM	Cc1nc(OC2CCCC2)ccc1-c1nc2c(c(=O)n(CCCO)c(=O)n2C(C)C)n1Cc1ccc(F)cc1 [Example 4]
< 0.1 nM	Cc1nc(OC2CCC23CCC3)ccc1-c1nc2c(c(=O)n(CCCO)c(=O)n2C(C)C)n1Cc1ccccc1 (centres unmarked) [Example 6]
0.19 nM	Cc1nc(OC2CCC2)ccc1-c1nc2c(c(=O)n(CCCO)c(=O)n2C2CCC2)n1Cc1ccccc1 [Example 16]
0.236 nM	Cc1nc(OC2CCC2C)ccc1-c1nc2c(c(=O)n(CCCO)c(=O)n2C(C)C)n1Cc1ccccc1 (centres unmarked) [Example 19]
0.246 nM	CCC(C)n1c(=O)n(CCCO)c(=O)c2c1nc(-c1ccc(OC3CC(C)C3)nc1C)n2Cc1ccccc1 (centres unmarked) [Example 20]
0.402 nM	CCn1c(=O)n(CCCO)c(=O)c2c1nc(-c1ccc(O[C@H]3C[C@@H](C)C3)nc1C)n2Cc1ccccc1 [Example 27]
0.431 nM	CCn1c(=O)n(CCCO)c(=O)c2c1nc(-c1ccc(OC3CCC3(C)C)nc1C)n2Cc1ccccc1 (centres unmarked) [Example 31]
0.46 nM	CCn1c(=O)n(CCCO)c(=O)c2c1nc(-c1ccc(OC3CC(C)(C)C3)nc1C)n2Cc1ccccc1 [Example 32]
0.477 nM	Cc1nc(OC2CCC2)ccc1-c1nc2c(c(=O)n(CCCO)c(=O)n2C(C)C)n1Cc1ccc(F)cc1 [Example 33]
0.485 nM	CCn1c(=O)n(CCCO)c(=O)c2c1nc(-c1ccc(OC3CC(C)C3)nc1C)n2Cc1ccccc1 (centres unmarked) [Example 34]
0.531 nM	CCn1c(=O)n(CCCO)c(=O)c2c1nc(-c1ccc(OC3CCC(C(F)(F)F)CC3)nc1C)n2Cc1ccc(F)cc1 (centres unmarked) [Example 35]
0.551 nM	CCn1c(=O)n(CCCO)c(=O)c2c1nc(-c1ccc(OC3CCC3)nc1C)n2Cc1ccc(Cl)cc1 [Example 36]
0.628 nM	CCn1c(=O)n(CCCO)c(=O)c2c1nc(-c1cc(F)c(OC3CCC3)nc1C)n2Cc1ccccc1 [Example 39]
0.643 nM	CCn1c(=O)n(CCCO)c(=O)c2c1nc(-c1ccc(OC3CCC3C)nc1)n2Cc1ccc(Cl)cc1 (centres unmarked) [Example 40]
0.713 nM	CCC(C)n1c(=O)n(CCCO)c(=O)c2c1nc(-c1ccc(OC3CCC3)nc1C)n2Cc1ccccc1 (centres unmarked) [Example 42]
0.743 nM	CCn1c(=O)n(CCCO)c(=O)c2c1nc(-c1ccc(OC3CCCC3)nc1C)n2Cc1ccc(F)cc1 [Example 44]
0.873 nM	CCn1c(=O)n(CCCO)c(=O)c2c1nc(-c1ccc(OC3CCC3)nc1)n2Cc1ccc(Cl)cc1 [Example 48]
1.16 nM	CCn1c(=O)n(CCCO)c(=O)c2c1nc(-c1ccc(OC3CCC3)nc1C)n2Cc1ccc(F)cc1 [Example 50]
1.36 nM	CCn1c(=O)n(CCCO)c(=O)c2c1nc(-c1ccc(OC3CCC3C)nc1)n2Cc1ccc(F)cc1 (centres unmarked) [Example 51]

The next lines start with the compound.

SMILES	IC50
CCn1c(=O)n(CCCO)c(=O)c2c1nc(-c1ccc(O[C@H]3CCC[C@@H]3C)nc1C)n2Cc1ccc(Cl)cc1 (racemic) [Example 21]	0.249 nM
CCn1c(=O)n(CCCO)c(=O)c2c1nc(-c1ccc(OC3CCC3C)nc1C)n2Cc1ccc(Cl)cc1 (centres unmarked) [Example 3]	0.099 nM
Cc1nc(OC2CC(C)C2)ccc1-c1nc2c(c(=O)n(CCCO)c(=O)n2C(C)C)n1Cc1ccc(F)cc1 (centres unmarked) [Example 5]	< 0.1 nM
CCn1c(=O)n(CCCO)c(=O)c2c1nc(-c1ccc(OC3CC4CCC3C4)nc1C)n2Cc1ccc(F)cc1 (centres unmarked) [Example 7]	0.104 nM
Cc1nc(OC2CCCC2)ccc1-c1nc2c(c(=O)n(CCCO)c(=O)n2C(C)C)n1Cc1ccccc1 [Example 9]	0.13 nM
CCn1c(=O)n(CCCO)c(=O)c2c1nc(-c1ccc(OC3CCC3C)nc1C(F)(F)F)n2Cc1ccc(Cl)cc1 (centres unmarked) [Example 10]	0.15 nM
CCn1c(=O)n(CCCO)c(=O)c2c1nc(-c1ccc(OC3CCC3(C)C)nc1C)n2Cc1ccc(F)cc1 (centres unmarked) [Example 11]	0.163 nM
CCn1c(=O)n(CCCO)c(=O)c2c1nc(-c1ccc(OC3CCC3C)nc1C(F)(F)F)n2Cc1ccccc1 (centres unmarked) [Example 12]	0.171 nM
CCn1c(=O)n(CCCO)c(=O)c2c1nc(-c1cc(F)c(OC3CCC3)nc1C)n2Cc1ccc(F)cc1 [Example 13]	0.174 nM
CCn1c(=O)n(CCCO)c(=O)c2c1nc(-c1ccc(OC3CCC3C)nc1C)n2Cc1ccc(Br)cc1 (centres unmarked) [Example 14]	0.178 nM
CCn1c(=O)n(CCCO)c(=O)c2c1nc(-c1ccc(OC3CCC3C)nc1C(F)(F)F)n2Cc1ccc(F)cc1 (centres unmarked) [Example 15]	0.184 nM
CCn1c(=O)n(CCCO)c(=O)c2c1nc(-c1ccc(OC3CC(C)C3)nc1C)n2Cc1ccc(Cl)cc1 (centres unmarked) [Example 17]	0.199 nM
CCn1c(=O)n(CCCO)c(=O)c2c1nc(-c1ccc(OC3CC(C)C3)nc1C)n2Cc1ccc(F)cc1 (centres unmarked) [Example 18]	0.207 nM
Cc1nc(OC2CC=CC2)ccc1-c1nc2c(c(=O)n(CCCO)c(=O)n2C(C)C)n1Cc1ccccc1 [Example 22]	0.265 nM
CCn1c(=O)n(CCCO)c(=O)c2c1nc(-c1ccc(OC3CCCC3)nc1C)n2Cc1ccc(Cl)cc1 [Example 23]	0.275 nM
CCn1c(=O)n(CCCO)c(=O)c2c1nc(-c1ccc(OC3CC(C)(C)C3)nc1C)n2Cc1ccc(F)cc1 [Example 24]	0.281 nM
Cc1nc(OC2CC(F)(F)C2)ccc1-c1nc2c(c(=O)n(CCCO)c(=O)n2C(C)C)n1Cc1ccc(F)cc1 [Example 25]	0.312 nM
Cc1nc(OC2CC(C)C2)ccc1-c1nc2c(c(=O)n(CCCO)c(=O)n2C(C)C)n1Cc1ccccc1 (centres unmarked) [Example 26]	< 0.32 nM
CCn1c(=O)n(CCCO)c(=O)c2c1nc(-c1ccc(O[C@H]3C[C@H](C)C3)nc1C)n2Cc1ccccc1 [Example 28]	0.917 nM
CCn1c(=O)n(CCCO)c(=O)c2c1nc(-c1ccc(OC3CCCCC3)nc1C)n2Cc1ccc(F)cc1 [Example 29]	0.403 nM
Cc1nc(OC2CCC2)ccc1-c1nc2c(c(=O)n(CCCO)c(=O)n2C(C)C)n1Cc1ccccc1 [Example 30]	0.426 nM
CCC(C)n1c(=O)n(CCCO)c(=O)c2c1nc(-c1ccc(OC3CCCC3)nc1C)n2Cc1ccccc1 (centres unmarked) [Example 37]	0.603 nM
CCn1c(=O)n(CCCO)c(=O)c2c1nc(-c1ccc(OC3CCC3)nc1)n2Cc1ccc(Br)cc1 [Example 38]	0.613 nM
CCn1c(=O)n(CCCO)c(=O)c2c1nc(-c1ccc(OC3CCC3C)nc1C)n2Cc1ccc(F)cc1 (centres unmarked) [Example 41]	0.688 nM
Cc1nc(OC2CC(F)(F)C2)ccc1-c1nc2c(c(=O)n(CCCO)c(=O)n2C(C)C)n1Cc1ccccc1 [Example 43]	0.732 nM
CCn1c(=O)n(CCCO)c(=O)c2c1nc(-c1ccc(OC3CC=CC3)nc1C)n2Cc1ccc(F)cc1 [Example 45]	0.75 nM
CCn1c(=O)n(CCCO)c(=O)c2c1nc(-c1ccc(OC3CCC3)nc1)n2Cc1ccc(SC(F)(F)F)cc1 [Example 46]	0.812 nM
CCn1c(=O)n(CCCO)c(=O)c2c1nc(-c1ccc(OC3CC(F)(F)C3)nc1C)n2Cc1ccc(F)cc1 [Example 47]	0.859 nM
CCn1c(=O)n(CCCO)c(=O)c2c1nc(-c1ccc(OC3CCC3)nc1)n2Cc1ccc(C2CC2)cc1 [Example 49]	1.01 nM
